Results as given in publication PMC11876601 (Molecular Systems Biology, 2025).
Where “and” joins values, the source holds several entries; their conditions need not be identical. Equal entries are not always repeated. Where two headings read alike, the source gives them in different places.

System: AsPC-1 cells
Test: Cell proliferation assay, chemodrug + ATR inhibitor (Incucyte confluence, 72 h);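 further: underlying read-out for every value is AsPC-1 confluence after 72 h incubation at 37 °C and 5% CO2, divided by that well's starting confluence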
Conditions: for Curve slope / Curve bottom / Curve top: fitted dose-response curve; for Curve bottom / Curve top: relative response; for EC50: Homo sapiens
[1] = AsPC1, Experiment ATRi (ATR inhibitor alone)
[2] = AsPC1, Experiment GEM+ATRi_dose1
[3] = AsPC1, Experiment GEM+ATRi_dose2
[4] = AsPC1, Experiment GEM+ATRi_dose3

Description: Cells were seeded at 5000 cells/well into 96-well flat bottom plates (Eppendorf) and allowed to attach overnight. […] Cells were incubated for 72 h at 37 °C and 5% CO2. Cell confluence readouts at 72 h were either normalized to their initial confluence using the Incucyte software (AsPC-1) or used without prior normalization (all others). […] Each experiment was performed in triplicates, the data was plotted as mean ± standard deviation (s.d.).

EC50 (ASPC1, 72 h, AsPC1, Experiment ATRi (ATR inhibitor alone), single replicates R1-R3): 1810 nM | EC50 (ASPC1, 72 h, read-out: EC50 (cell growth), ATR inhibitor as single agent): 1720 nM | EC50 (ASPC1, 72 h, read-out: EC50 mean [nM], AsPC1, Experiment ATRi (ATR inhibitor alone), mean of replicates): 1720 nM | EC50 (ASPC1, 72 h, read-out: pEC50, AsPC1 (converted), Experiment ATRi (ATR inhibitor alone), single replicates R1-R3): 1820 nM | EC50 (ASPC1, read-out: EC50 mean [nM], AsPC1, Experiment ATRi (ATR inhibitor alone), mean of replicates): 1720 nM
Structure (SMILES): C[C@@H]1COCCN1c1cc(C2([S@](C)(=N)=O)CC2)nc(-c2cc[nH]c3nccc2-3)n1 [Ceralasertib]
Curve slope [1]: 2.93 and 3.34 and 3.10 | Curve bottom [1]: 1.16 and 0.93 and 0.99 | Curve top [1]: 0.45 and 0.34 and 0.35 | Curve slope [2]: 1.26 and 1.52 and 1.58 | Curve bottom [2]: 1.03 and 0.96 and 0.97 | Curve top [2]: 0.53 and 0.41 and 0.45 | Curve bottom [3]: 1.06 and 0.94 and 0.90 | Curve top [3]: 0.50 and 0.38 and 0.42 | Curve slope [4]: 1.68 and 1.97 | Curve bottom [4]: 0.98 | Curve top [4]: 0.46 and 0.35 and 0.39 | Raw data (confluence at 72 h/confluence at 0 h) (Ceralasertib experiment, replicate R1, titrated drug dose 3 nM): 3.36 | Raw data (confluence at 72 h/confluence at 0 h) (Ceralasertib experiment, replicate R1, titrated drug dose 10 nM): 3.44 | Raw data (confluence at 72 h/confluence at 0 h) (Ceralasertib experiment, replicate R1, titrated drug dose 30 nM): 3.6 | Raw data (confluence at 72 h/confluence at 0 h) (Ceralasertib experiment, replicate R1, titrated drug dose 100 nM): 3.35 | Raw data (confluence at 72 h/confluence at 0 h) (Ceralasertib experiment, replicate R1, titrated drug dose 300 nM): 3.69 | Raw data (confluence at 72 h/confluence at 0 h) (Ceralasertib experiment, replicate R1, titrated drug dose 1000 nM): 3.19 | Raw data (confluence at 72 h/confluence at 0 h) (Ceralasertib experiment, replicate R1, titrated drug dose 3000 nM): 1.77 | Raw data (confluence at 72 h/confluence at 0 h) (Ceralasertib experiment, replicate R1, titrated drug dose 10000 nM): 1.38 | Raw data (confluence at 72 h/confluence at 0 h) (Ceralasertib experiment, replicate R2, titrated drug dose 3 nM): 3.66 | Raw data (confluence at 72 h/confluence at 0 h) (Ceralasertib experiment, replicate R2, titrated drug dose 10 nM): 3.73 | Raw data (confluence at 72 h/confluence at 0 h) (Ceralasertib experiment, replicate R2, titrated drug dose 30 nM): 3.9 | Raw data (confluence at 72 h/confluence at 0 h) (Ceralasertib experiment, replicate R2, titrated drug dose 100 nM): 2.91 | Raw data (confluence at 72 h/confluence at 0 h) (Ceralasertib experiment, replicate R2, titrated drug dose 300 nM): 3.91 | Raw data (confluence at 72 h/confluence at 0 h) (Ceralasertib experiment, replicate R2, titrated drug dose 1000 nM): 3.25 | Raw data (confluence at 72 h/confluence at 0 h) (Ceralasertib experiment, replicate R2, titrated drug dose 3000 nM): 1.61 | Response (GEM 0 nM, ATRi 100 nM): 3.13 | Response (GEM 0 nM, ATRi 300 nM): 3.19 | Response (GEM 0 nM, ATRi 1000 nM): 3.06 | Response (GEM 1 nM + ATRi 100 nM): 3.00 | Response (GEM 1 nM + ATRi 300 nM): 3.18 | Response (GEM 1 nM + ATRi 1000 nM): 2.76 | Response (GEM 3 nM + ATRi 100 nM): 3.15 | Response (GEM 3 nM + ATRi 300 nM): 3.26 | Response (GEM 3 nM + ATRi 1000 nM): 2.99 | Response (GEM 10 nM + ATRi 100 nM): 2.74 | Response (GEM 10 nM + ATRi 300 nM): 3.12 | Response (GEM 10 nM + ATRi 1000 nM): 2.13 | Response (GEM 30 nM + ATRi 100 nM): 2.24 | Response (GEM 30 nM + ATRi 300 nM): 2.10 | Response (GEM 100 nM + ATRi 100 nM): 1.89 | Response (GEM 100 nM + ATRi 1000 nM): 1.42 | Response (GEM 300 nM + ATRi 100 nM): 1.67 | Response (GEM 300 nM + ATRi 300 nM): 1.55 | Response (GEM 1000 nM + ATRi 100 nM): 1.60 | Response (GEM 1000 nM + ATRi 300 nM): 1.47 | Response (GEM 3000 nM + ATRi 100 nM): 1.61 | Response (GEM 3000 nM + ATRi 300 nM): 1.44 | Response (experiment ATRi, GEM 0 nM, ATRi 100 nM, AsPC1, replicates R2, R3): 1.95 | Response (experiment GEM+ATRi_dose1, GEM 0 nM, ATRi 100 nM, AsPC1, replicates R2, R3): 3.76 and 3.38 | Response (experiment GEM+ATRi_dose1, GEM 1 nM, ATRi 100 nM, AsPC1, replicates R2, R3): 3.75 and 3.44 | Response (experiment GEM+ATRi_dose1, GEM 3 nM, ATRi 100 nM, AsPC1, replicates R2, R3): 3.76 and 3.47 | Response (experiment GEM+ATRi_dose1, GEM 10 nM, ATRi 100 nM, AsPC1, replicates R2, R3): 3.43 | Response (experiment GEM+ATRi_dose1, GEM 30 nM, ATRi 100 nM, AsPC1, replicates R2, R3): 2.86 and 2.80 | Response (experiment GEM+ATRi_dose1, GEM 100 nM, ATRi 100 nM, AsPC1, replicates R2, R3): 1.90 and 2.07 | Response (experiment GEM+ATRi_dose1, GEM 300 nM, ATRi 100 nM, AsPC1, replicates R2, R3): 1.72 and 1.75 | Response (experiment GEM+ATRi_dose1, GEM 1000 nM, ATRi 100 nM, AsPC1, replicates R2, R3): 1.62 and 1.67 | Response (experiment GEM+ATRi_dose1, GEM 3000 nM, ATRi 100 nM, AsPC1, replicates R2, R3): 1.55 and 1.53 | Response (experiment GEM+ATRi_dose2, GEM 0 nM, ATRi 300 nM, AsPC1, replicates R2, R3): 3.86 and 3.56 | Response (experiment GEM+ATRi_dose2, GEM 1 nM, ATRi 300 nM, AsPC1, replicates R2, R3): 3.53 and 2.33 | Response (experiment GEM+ATRi_dose2, GEM 3 nM, ATRi 300 nM, AsPC1, replicates R2, R3): 3.61 and 3.55 | Response (experiment GEM+ATRi_dose2, GEM 10 nM, ATRi 300 nM, AsPC1, replicates R2, R3): 3.45 and 3.38 | Response (experiment GEM+ATRi_dose2, GEM 30 nM, ATRi 300 nM, AsPC1, replicates R2, R3): 2.30 | Response (experiment GEM+ATRi_dose2, GEM 100 nM, ATRi 300 nM, AsPC1, replicates R2, R3): 1.61 | Response (experiment GEM+ATRi_dose2, GEM 300 nM, ATRi 300 nM, AsPC1, replicates R2, R3): 1.48 and 1.53 | Response (experiment GEM+ATRi_dose2, GEM 1000 nM, ATRi 300 nM, AsPC1, replicates R2, R3): 1.52 and 1.48 | Response (experiment GEM+ATRi_dose2, GEM 3000 nM, ATRi 300 nM, AsPC1, replicates R2, R3): 1.45 | Response (experiment GEM+ATRi_dose3, GEM 0 nM, ATRi 1000 nM, AsPC1, replicates R2, R3): 3.10 and 2.81 | Response (experiment GEM+ATRi_dose3, GEM 1 nM, ATRi 1000 nM, AsPC1, replicates R2, R3): 3.14 and 2.98 | Response (experiment GEM+ATRi_dose3, GEM 3 nM, ATRi 1000 nM, AsPC1, replicates R2, R3): 2.92 | Response (experiment GEM+ATRi_dose3, GEM 10 nM, ATRi 1000 nM, AsPC1, replicates R2, R3): 2.52 and 2.34 | Response (experiment GEM+ATRi_dose3, GEM 30 nM, ATRi 1000 nM, AsPC1, replicates R2, R3): 1.76 and 1.67 | Response (experiment GEM+ATRi_dose3, GEM 100 nM, ATRi 1000 nM, AsPC1, replicates R2, R3): 1.44 | Response (experiment GEM+ATRi_dose3, GEM 1000 nM, ATRi 1000 nM, AsPC1, replicates R2, R3): 1.42 | Raw data (confluence at 72 h/confluence at 0 h) (titrated drug dose 3 nM, replicate R3, experiment (ATRi) Ceralasertib, AsPC-1, 72 h): 3.28 | Raw data (confluence at 72 h/confluence at 0 h) (titrated drug dose 10 nM, replicate R3, experiment (ATRi) Ceralasertib, AsPC-1, 72 h): 3.61 | Raw data (confluence at 72 h/confluence at 0 h) (titrated drug dose 30 nM, replicate R3, experiment (ATRi) Ceralasertib, AsPC-1, 72 h): 3.58 | Raw data (confluence at 72 h/confluence at 0 h) (titrated drug dose 300 nM, replicate R3, experiment (ATRi) Ceralasertib, AsPC-1, 72 h): 3.61 | Raw data (confluence at 72 h/confluence at 0 h) (titrated drug dose 1000 nM, replicate R3, experiment (ATRi) Ceralasertib, AsPC-1, 72 h): 3.17 | Raw data (confluence at 72 h/confluence at 0 h) (titrated drug dose 3000 nM, replicate R3, experiment (ATRi) Ceralasertib, AsPC-1, 72 h): 1.6 | Raw data (confluence at 72 h/confluence at 0 h) (titrated drug dose 10000 nM, replicate R3, experiment (ATRi) Ceralasertib, AsPC-1, 72 h): 1.25
